“And” between values parts separate entries of the source, which are not always exact repeats. Equal values may be shown once.
Experiments:
[1] = target: T1, MHC I molecules on the surfaces of T2 cells (HLA-A*11:01) (Homo sapiens, UniProt P04439, A114D/D185E/E176A/F33Y/L180Q/S129P/T187R); assay: Verification of affinity of polypeptide with T2 cells (flow cytometry, fluorescence index); type: cell-based
T1 construct: endogenous in cells; host or cells: T2 cells
Excerpt: T2 cells are a necessary antigen polypeptide transporter-deficient cell line in the endogenous antigen presentation pathway, and can be used to study the strength of the mutual recognition with MHC molecules in the antigen presentation process.
In order to verify the affinity of exogenous polypeptides with T2 cells, a polypeptide that had been confirmed to have strong affinity with T2 cells was used as positive control, and T2 cells without adding polypeptides were used as background control. […] Based on this, the affinity of the polypeptide with T2 cells is determined. The higher the FI value, the stronger the affinity of the polypeptide with T2 cells, which is conducive to the subsequent recognition of specific CD8^+ T cells.
The synthesized polypeptides were added to 2*10^5 T2 cells, and human β2 micro-globulin (with a final concentration of 3 μg/ml) was added and cultivated in 24-well plate. The plate was cultured in an incubator (37° C., 5% CO2) overnight. […] (SEQ ID NO: 9), which is a viral peptide and is also a known polypeptide with strong affinity with T2 cells, was used as a positive control, duplicate wells for each experiment, and the average value was calculated.
[…] for 5 minutes to collect the cells. […] The mean fluorescence intensity was then detected and analyzed by a flow cytometer (BD FACSJazz™) and its software, see FIG. 2.

[2] = test system: CD8+ T cells; assay: ELISPOT verification of activation of CD8+ T cell immune response (IFN-gamma secretion); type: cell-based, human
Description: (§1) The peripheral blood mononuclear cells (PBMCs) were collected from the volunteers who were positive for the corresponding subtype of the polypeptide. For 2×10^7 PBMCs, mononuclear cells were separated by using the adherent method (adhered for 3 h), and CD8^+ T cells were isolated by using CD8 magnetic beads. The adherent mononuclear cells were induced to immature DC cells by using GM-CSF (1000 U/ml) and IL-4 (1000 U/ml). Then, the adherent cells were induced into polypeptide-specific mature DC cells by IFN-gamma (100 U/ml), LPS (10 ng/ml), and the respective polypeptides. The obtained polypeptide-specific mature DC cells were co-cultured with volunteers' CD8^+ T cells, and IL-21 was added. After 3 days, IL-2 and IL-7 were supplemented. Thereafter, IL-2 and IL-7 were supplemented on day 5 and day 7, and on day 10, the co-cultured cells were counted, and the subsequent ELISPOTs and LDH were detected.
The ELISPOT method is an enzyme-linked immunospot assay, which can detect the cytokines secreted by a single cell. In the assay, the culture plate was coated with specific monoclonal antibodies, and then the cells to be detected and antigenic stimulant were added for culture. Under the stimulation of the stimulant, the corresponding cytokines were secreted by the T cells, and the secreted cytokines were captured by the antibodies coated on the culture plate. After washing away the cells, the captured cytokines were bonded to […] secondary antibodies to form spots. […]
With reference to the specification in the ELISPOT kit, the cells cultured in Example 4, T2 cells loaded with testing polypeptide ([…], SEQ ID NO: 2), and T2 cells loaded with irrelevant polypeptide (referring to a polypeptide not stimulating T cells to secrete IFN-gamma interferon and having a specific sequence of […], the irrelevant polypeptide used in the following examples also refers to this sequence) were added respectively to the ELISPOT plate for cultivation, and ELISPOTs were detected after 20 hours (see the specification of the ELISPOT kit). […]

[3] = test system: T2 cells; assay: LDH release assay of polypeptide-specific killing activity of CD8+ T cells; type: cell-based; settings: triplicate wells
Description: as §1
LDH is an enzyme present in the cytoplasm. LDH will be released into the culture medium when the cell membrane is damaged. Since the released LDH is stable, the measured amount of LDH in the medium can be used as an indicator to measure the number of dead and damaged cells.
The cells cultured in Example 4 were co-cultured with the T2 cells loaded with the testing polypeptide or the irrelevant polypeptide or no polypeptide. In the assay, maximum release wells, volume correction wells, medium control wells, spontaneous release wells, different effect-target ratios (the ratio of the number of T cells to the number of T2 cells) were set, triplicated wells for each group. After 4 hours, 50 μl of the co-cultured cell supernatant was taken and added to 50 μl of LDH substrate mixture, allowing the cell supernatant to catalyze the LDH substrate reaction, finally reading at the wavelength of 490 nm and the reference wavelength of 680 nm. Based on the control wells, the killing activity of […] killing T2 cells was calculated. The greater the value shown in Table 4, the stronger the killing effect.

[4] = test system: HCC827 subcutaneous tumor model; assay: Polypeptide vaccine in mouse subcutaneous transplanted tumor model; type: in vivo, NOD/SCID mice; settings: polypeptide + Freund's adjuvant, 4 immunizations, compared with wild-type polypeptide group and adjuvant group, FIG. 4
Excerpt: (§2) This model was used to verify the tumor control effect of the polypeptide pharmaceutical combination, the antigen-presenting cell, and the vaccine proposed by the present disclosure. • 1. The encoding gene of each polypeptide was introduced by lentivirus transfection, and the recombinant lentivirus expressing the above-mentioned mutant polypeptide or a variant thereof was constructed and packaged. • 2. Construction of human-derived lung cancer cell line expressing the polypeptides
(§3) The human lung cancer cell line HCC827 was purchased from ATCC (No: CRL-2868), and its HLA subtype was HLA-A*1101 positive. Cells were cultured in DMEM medium containing 10% fetal bovine serum, 100 U/mL penicillin and streptomycin, in an incubator at 37° C., 5% CO2. […]
(§4) The established human lung cancer cell line was cultured in DMEM medium containing 10% fetal bovine serum, 100 U/mL penicillin and streptomycin, in an incubator at 37° C., 5% CO2. […] The subcutaneous tumor model NOD/SCID mice with immune reconstitution for 4 weeks were treated with DC vaccine, and the tumor volumes were recorded every 3 to 4 days. […]
The first immunization dosage of the polypeptide of each group was […] per mouse. […] After the injection, the vital signs of the mice were observed, and the vertical and horizontal sizes of the tumor were measured with a vernier caliper every 3 to 4 days. […]

[5] = test system: HCC827 subcutaneous tumor model; assay: DC polypeptide vaccine in mouse subcutaneous transplanted tumor model; type: in vivo, NOD/SCID mice; settings: polypeptide-loaded DC cells, intradermal, 2 injections; compared with wild-type and blank polypeptide-loaded DC groups; FIG. 5
Excerpt: as §2
as §3, with “CO2. The packaged lentivirus was transfected into the HCC827 cell line, and antibiotic puromycin was used to continuously screen the surviving HCC827 cell line, and finally the HCC827 cell line expressing the polypeptides was established. • 3. NOD SCID mouse human immune reconstitution” for “CO2.”
as §4

[6] = test system: HCC827 subcutaneous tumor model; assay: Polypeptide-specific DC-CTL vaccine in mouse subcutaneous transplanted tumor model; type: in vivo, NOD/SCID mice; settings: polypeptide-activated CTLs reinfused through the tail vein; compared with blank polypeptide and wild-type polypeptide groups; FIG. 6
Excerpt: as §2, §3
The established human lung cancer cell line was cultured in DMEM medium containing 10% fetal bovine serum, 100 U/mL penicillin and streptomycin, in an incubator at 37° C., 5% CO2. […] The subcutaneous tumor model NOD/SCID mice with immune reconstitution for 4 weeks were treated with DC vaccine, and the tumor volumes were recorded every 3 to 4 days.
The PBLs collected in Example 9 were sorted by magnetic beads to obtain CD8^+ T cells. […] The culture medium was incubated with 500 IU/ml IL-2 and 50 ng/ml IL-7, in an incubator at 37° C. with 5% CO2, and the cells were counted after 1 week of culture. […]

For RHGGWTTK (Mutant polypeptide), the “Conclusion (T2 cell affinity)” value ([1]; compared with the positive control) was “High affinity”, the FI ([1]; fluorescence index, T2 cells, overnight, FITC anti-HLA-A*11:01 antibody, flow cytometry) was 2.12 and the “Number of spots produced by using irrelevant polypeptide as stimulant” value ([2]; IFN-gamma ELISPOT, T2 cells loaded with irrelevant polypeptide LSYRNKPSI, 20 hours) was 11. The “Number of spots produced by using testing polypeptide as stimulant” value ([2]; IFN-gamma ELISPOT, T2 cells loaded with testing polypeptide, 20 hours) was 104, the “Multiple (testing/irrelevant)” value ([2]; ratio of spot numbers, >=2 regarded as having immunogenicity) was 9 and the “Killing activity, T + T2 (loaded with no polypeptide)” value ([3]; E:T = 1:1, 4 hours) was 0.322 and 0.279 and 0.298. For the same sequence, the “Killing activity, T + T2 + irrelevant polypeptide” value ([3]; E:T = 1:1, 4 hours) was 0.278 and 0.293 and 0.308, the “Killing activity, T + T2 + testing polypeptide” value ([3]; E:T = 1:1, 4 hours) was 0.324 and 0.351 and the “Killing activity, T + T2 (loaded with no polypeptide)” value ([3]; E:T = 10:1, 4 hours) was 0.413 and 0.352 and 0.364. The “Killing activity, T + T2 + irrelevant polypeptide” value ([3]; E:T = 10:1, 4 hours) was 0.436 and 0.371 and 0.407, the “Killing activity, T + T2 + testing polypeptide” value ([3]; E:T = 10:1, 4 hours) was 0.406 and 0.397 and 0.414 and the “Mouse tumor growth (tumor volume), polypeptide vaccine” value [4] was “can significantly slow down the mouse tumor growth”. For the same sequence, the “Mouse tumor growth (tumor volume), polypeptide-loaded DC vaccine” value [5] was “can significantly slow down the mouse tumor growth” and the “Mouse tumor growth (tumor volume), DC-CTL vaccine” value [6] was “can significantly slow down the mouse tumor growth”.

Reference: patent US12570696B2, “Tumor-specific polypeptide sequence and use thereof” (SHENZHEN GINO BIOTECHNOLOGY CO., LTD., priority 2019, dated 2026)
